We go through 4 substances from PMC8072975 (Pharmaceutics, 2021).

Like-named read-outs stand apart in the source and are kept apart here.

The conditions of data set [1]: mean ± SD, n = 3; for Stability 4℃, 5-D (%): Table S1.
Experimental: The HPLC analyses were performed on an Agilent Technology 1260 infinity system (Agilent Technology Inc., Waldbronn, Germany) equipped with an Agilent ChemStation software Rev. B.04.03-SP2 (105), a binary pump, a degasser, an autosampler, a thermostatted sample reservoir, a thermostatted column compartment, and a UV-detector. A Capcell-pak C18 UG120 column (4.6 mm × 250 mm, 5 μm, Osaka Soda Co. Ltd., Osaka, Japan) was used as an analytical column. The mobile phase was composed of 10 mM NaH2PO4 (pH 1.61–1.63) and 100% ACN (78:22, v/v) with isocratic elution at pH of 2.0–2.1 using a flow rate of 1.0 mL/min. The sample reservoir and column oven were maintained at 4 °C and 25 °C, respectively. The analytes were detected using a UV detector with the wavelength set at 220 nm, and the injection volume was 25 μL.
(§1) The aqueous supernatant (approximately 100 μL) was prepared as the final sample extract after rinsing with 600 μL of chloroform.
(§2) The recovery of the sample preparation method was estimated by dividing the peak area for the pre-spiked sample by the peak area for the post-spiked sample, multiplied by 100. […] Short- and long-term stability was evaluated after storage at 4 °C for 36 h and −70 °C for 24 days. Freeze-thaw stability was assessed with three freeze-thaw cycles at −70 °C. The post-preparation stability was also examined at 4 °C for 24 h.
The conditions of data set [2]: cited from earlier work.
The next data set relates to SARS-CoV-2 (COVID-19). Particulars: read-out: Half-maximal inhibitory concentration (IC50) against SARS-CoV-2; in vitro; preventing viruses' entrance into the cytoplasm; cited from earlier work.
Data set [3] can be described thus: Post-preparation stability of teicoplanin and IS mixture (processed plasma extract). Particulars: mean ± SD, n = 3. It is filed as physicochemical, human.
Experimental: as §1, §2

Turning to polymyxin B [IS], in data set [1] (long-term, human plasma, IS 100 mg/L, peak area of polymyxin B2, HPLC-UV 220 nm), the “Stability −70 °C, 24-d (%)” value came out at 112.2 ± 8.74%. Further, the “Stability 4 °C, 36 h (%)” value in data set [1] (short-term, human plasma, IS 100 mg/L (polymyxin B mixture), peak area of polymyxin B2, HPLC-UV 220 nm) is 96.19 ± 2.79%. Besides, in data set [1] (three freeze-thaw cycles at −70 °C, human plasma, IS 100 mg/L, peak area of polymyxin B2, HPLC-UV), the “Stability Freeze-Thaw (%)” value was determined as 111.5 ± 7.36%.
Regarding vancomycin, the Half-life in data set [2] was approximately 10 h.
On to teicoplanin, for which the IC50 with SARS-CoV-2 (COVID-19) was 1.66 µM.
On to teicoplanin A2-2, for which the “Stability Post-preparation, 7-D (%)” value in data set [3] (Table S1, H, 500.0 mg/L) was 102.58 ± 7.60%; in data set [3] (Table S1, L, 7.81 mg/L) it was 108.56 ± 24.10%; in data set [3] (Table S1, M, 62.5 mg/L), 105.94 ± 2.00%. Moreover, the “Stability 4℃, 5-D (%)” value in data set [1] (H, 500.0 mg/L) worked out at 101.84 ± 1.59%; in data set [1] (L, 7.81 mg/L), 100.96 ± 11.32%.
